Assay results as given in ChEMBL document CHEMBL4414659, “Chemical Constituents from the Aerial Parts of Agastache rugosa and Their Inhibitory Activities on Prostaglandin E2 Production in Lipopolysaccharide-Treated RAW 264.7 Macrophages” (J Nat Prod, 2019).

System: RAW264.7
Experiment: Antiinflammatory activity against LPS-stimulated mouse RAW264.7 cells assessed as decrease in PGE2 production preincubated for 1 hr followed by LPS stimulation and measured after 24 hrs by ELISA
Assay type: functional, cell-based

| SMILES | IC50 |
| --- | --- |
| COC(=O)[C@@H](Cc1ccc(O)c(O)c1)OC(=O)/C=C/c1ccc(O)c(O)c1 [METHYL ROSMARINATE] | 11.3 µM |
| COc1ccc(-c2cc(=O)c3c(O)cc(O[C@@H]4O[C@H](COC(=O)CC(=O)O)[C@@H](O)[C@H](OC(C)=O)[C@H]4O)cc3o2)cc1 | 16.8 µM |
| COc1ccc([C@@H]2CC(=O)c3c(O)cc(O[C@@H]4O[C@H](CO)[C@@H](O)[C@H](O)[C@H]4O)cc3O2)cc1 | > 50 µM |
| COc1ccc(-c2cc(=O)c3c(O)cc(O)cc3o2)cc1 [ACACETIN] | 6.2 µM |
| C=CCc1ccc(O[C@@H]2O[C@H](COC(C)=O)[C@@H](O)[C@H](O)[C@H]2O)cc1 | 48.8 µM |
| C=CCc1ccc(O[C@@H]2O[C@H](CO)[C@@H](O)[C@H](O)[C@H]2O)c(O)c1 | 3.2 µM |
| COc1ccc(-c2cc(=O)c3c(O)cc(O[C@@H]4O[C@H](COC(=O)CC(=O)O)[C@@H](O)[C@H](O)[C@H]4O)cc3o2)cc1 | 18.7 µM |
| C=CCc1ccc(O[C@@H]2O[C@H](CO)[C@@H](O)[C@H](O)[C@H]2O)c(OC)c1 [CITRUSIN C] | 1.7 µM |
| COc1ccc(-c2cc(=O)c3c(O)cc(O)cc3o2)cc1O [DIOSMETIN] | 8.4 µM |
| CCOC(=O)[C@@H](Cc1ccc(O)c(O)c1)OC(=O)/C=C/c1ccc(O)c(O)c1 [ETHYL ROSMARINATE] | 4.3 µM |
| COc1cc(/C=C/C(=O)OC[C@H]2O[C@@H](Oc3ccccc3C(=O)O)[C@H](O)[C@@H](O)[C@@H]2O)ccc1O | 33.9 µM |
| COc1cc(/C=C/C(=O)OC[C@H]2O[C@@H](OCC/C=C\C[C@H]3C(=O)CC[C@@H]3CC(=O)O)[C@H](O)[C@@H](O)[C@@H]2O)ccc1O | > 50 µM |
| C=CCc1ccc(O)c(O[C@@H]2O[C@H](CO)[C@@H](O)[C@H](O)[C@H]2O)c1 | 4.1 µM |
| O=C(/C=C/c1ccc(O)c(O)c1)O/C=C\c1ccc(O)c(O)c1 [NEPETOIDIN B] | 3.8 µM |
| O=c1cc(-c2ccc(O)cc2)oc2cc(O)cc(O)c12 [APIGENIN] | 13.4 µM |
| COc1ccc(-c2cc(=O)c3c(O)cc(O[C@@H]4O[C@H](CO)[C@@H](O)[C@H](OC(C)=O)[C@H]4O)cc3o2)cc1 | > 50 µM |

| SMILES | IC50 |
| --- | --- |
| COc1ccc(-c2cc(=O)c3c(O)cc(O[C@@H]4O[C@H](COC(=O)CC(=O)O)[C@@H](O)[C@H](O)[C@H]4OC(C)=O)cc3o2)cc1 | 28.8 µM |
| O=c1cc(-c2ccc(O)c(O)c2)oc2cc(O[C@@H]3O[C@H](CO)[C@@H](O)[C@H](O)[C@H]3O)cc(O)c12 [GALUTEOLIN] | 6.1 µM |
| COC(=O)/C=C/c1ccc(O)c(O)c1 [METHYLCAFFEATE] | 3.9 µM |
| CC1=CC(=O)CC(C)(C)[C@H]1/C=C/[C@@H](C)O[C@@H]1O[C@H](CO)[C@@H](O)[C@H](O)[C@H]1O | 16.8 µM |
| O=C(/C=C/c1ccc(O)c(O)c1)O[C@H](Cc1ccc(O)c(O)c1)C(=O)O [ROSMARINIC ACID] | 34.2 µM |
| O=c1cc(-c2ccc(O)cc2)oc2cc(O[C@@H]3O[C@H](CO)[C@@H](O)[C@H](O)[C@H]3O)cc(O)c12 [APIGETRIN] | > 50 µM |
| C=CCc1ccc(O[C@@H]2O[C@H](COC(=O)CC(=O)OC)[C@@H](O)[C@H](O)[C@H]2O)cc1 | 14.3 µM |
| O=c1cc(-c2ccc(O)c(O)c2)oc2cc(O)cc(O)c12 [LUTEOLIN] | 8.1 µM |
| O=C(CCc1ccc(O)cc1)c1c(O)cc(O)cc1O[C@@H]1O[C@H](CO)[C@@H](O)[C@H](O)[C@H]1O [PHLORIZIN] | 14.6 µM |
| COc1ccc(C(=O)O)cc1 [p-ANISIC ACID] | > 50 µM |
| CS(=O)(=O)Nc1ccc([N+](=O)[O-])cc1OC1CCCCC1 [NS-398] | 0.0067 µM |
| C=CCc1ccc(O[C@@H]2O[C@H](CO)[C@@H](O)[C@H](O)[C@H]2O)cc1 | 18.3 µM |
| CCOC(=O)/C=C/c1ccc(O)c(O)c1 [ETHYL CAFFEATE] | 2 µM |
| COc1ccc(-c2cc(=O)c3c(O)cc(O[C@@H]4O[C@H](CO)[C@@H](O)[C@H](O)[C@H]4O)cc3o2)cc1 [TILIANINE] | 7.4 µM |
| COc1ccc(-c2cc(=O)c3c(O)cc(O[C@@H]4O[C@H](CO)[C@@H](O)[C@H](O)[C@H]4OC(C)=O)cc3o2)cc1 | 4.7 µM |
| COc1ccc(-c2cc(=O)c3c(O)cc(O[C@@H]4O[C@H](CO)[C@@H](O)[C@H](O)[C@H]4O)cc3o2)cc1O | > 50 µM |
